Test results taken from patent US9487482B2, “3,4,5-trimethoxystyrylarylaminopropenones as potential anticancer agents” (Council of Scientific and Industrial Research, priority 2014, dated 2016).

Assays:
[1] = tested on: A549, HeLa, MCF-7 and HCT116 cells; experiment: In vitro cytotoxicity, MTT assay, summary over all four cancer cell lines; format: cell-based; conditions: Homo sapiens, range over the group of compounds and the four cell lines, read-out: IC50 value range towards all the cancer cell lines
Protocol: (§1) All cell lines used in this study were purchased from the American Type Culture Collection (ATCC, United States). A549, MCF-7, and HeLa were grown in Dulbecco's modified Eagle's medium (containing 10% FBS in a humidified atmosphere of 5% CO2 at 37° C.). HCT116 cells were cultured in Eagle's minimal essential medium (MEM) containing non-essential amino acids, 1 mM sodium pyruvate, […] bovine insulin, and 10% FBS. Cells were trypsinized when sub-confluent from T25 flasks/60 mm dishes and seeded in 96-well plates. The synthesized test compounds were evaluated for their in vitro antiproliferative in four different human cancer cell lines. A protocol of 48 h continuous drug exposure was used, and a MTT cell proliferation assay was used to estimate cell viability or growth. The cell lines were grown in their respective media containing 10% fetal bovine serum and were seeded into 96-well microtiter plates in 200 μL, aliquots at plating densities depending on the doubling time of individual cell lines. The microtiter plates were incubated at 37° C., 5% CO2, 95% air, and 100% relative humidity for 24 h prior to addition of experimental drugs. Aliquots of 2 μL, of the test compounds were added to the wells already containing 198 μL, of cells, resulting in the required final drug concentrations. For each compound, four concentrations (1, 10, 100, and 1000 μM) were evaluated, and each was done in triplicate wells. Plates were incubated further for 48 h, and the assay was terminated by the addition of 10 μL, of 5% MTT and incubated for 60 min at 37° C. Later, the plates were air-dried. Bound stain was subsequently eluted with 100 μL, of DMSO, and the absorbance was read on an multimode plate reader (Tecan M200) at a wavelength of 560 nm. Percent growth was calculated on a plate by plate basis for test wells relative to control wells. The above determinations were repeated thrice. The growth inhibitory effects of the compounds were analyzed by generating dose response curves as a plot of the percentage surviving cells versus compound concentration. The sensitivity of the cancer cells to the test compound was expressed in terms of IC50, a value defined as the concentration of compound that produced 50% reduction as compared to the control absorbance. (A. S. Kumar, M. A. Reddy, N. Jain, C. Kishor, T. R. Murthy, D. Ramesh, B. Supriya, A. Addlagatta, S. V. Kalivendi, B. Sreedhar. Eur. J. Med. Chem. 60 (2013) 305-24).

[2] = tested on: MCF-7 cells; experiment: In vitro cytotoxicity, MTT assay, MCF-7; format: cell-based, human; conditions: MCF-7 (breast cancer), 48 h continuous drug exposure
Protocol: as §1

[3] = tested on: HCT116 cells; experiment: In vitro cytotoxicity, MTT assay, HCT116; format: cell-based, human; conditions: 48 h continuous drug exposure
Protocol: as §1

[4] = tested on: HeLa cells; experiment: In vitro cytotoxicity, MTT assay, HeLa; format: cell-based, human; conditions: HeLa (cervical carcinoma), 48 h continuous drug exposure
Protocol: as §1

[5] = tested on: A549 cells; experiment: In vitro cytotoxicity, MTT assay, A549; format: cell-based, human; conditions: A549 (non-small cell lung cancer), 48 h continuous drug exposure
Protocol: as §1

[6] = Homo sapiens, HCT-116, HCT116 (colon carcinoma)

Compound | IC50 [1] [nM] | IC50 ([2]; Homo sapiens, MCF7, 48 h) [µM] | IC50 [3, 6] [µM] | IC50 ([4]; Homo sapiens) [µM] | IC50 ([5]; Homo sapiens) [µM] | IC50 [2] [µM] | IC50 ([3]; HCT116 (colon carcinoma)) [µM] | IC50 [4] [µM] | IC50 [5] [µM]
COc1cc(/C=C\c2cc(OC)c(OC)c(OC)c2)cc(N/C=C\C(=O)c2cc(OC)c(OC)c(OC)c2Br)c1OC [Compound 11y, (Z)-1-(2-bromo-3,4,5-trimethoxyphenyl)-3-((2,3-dimethoxy-5-((Z)-3,4,5-trimethoxystyryl)phenyl)amino)prop-2-en-1-one] | 120 to 5750 | 5.37 | 0.3 | 1.58 | 0.28 | – | – | – | –
COc1ccc(/C=C\c2cc(OC)c(OC)c(OC)c2)cc1N/C=C\C(=O)c1cc(OC)c(OC)c(OC)c1 [Compound 10x, (Z)-3-((2-methoxy-5-((Z)-3,4,5-trimethoxystyryl)phenyl)amino)-1-(3,4,5-trimethoxyphenyl)prop-2-en-1-one] | 110 to 4680 | 0.27 | 1.51 | 0.26 | 1.68 | – | – | – | –
COc1ccc(C=Cc2cc(OC)c(OC)c(OC)c2)cc1N/C=C\C(=O)c1cn(C)c2ccccc12 [Compound 10w, (Z)-3-(2-methoxy-5-(3,4,5-trimethoxystyryl)phenylamino)-1-(1-methyl-1H-indol-3-yl)prop-2-en-1-one] | 110 to 4680 | 1.07 | 0.37 | 0.46 | 0.67 | – | – | – | –
COc1ccc(/C=C\c2cc(OC)c(OC)c(OC)c2)c(N/C=C\C(=O)c2ccc(OC(F)(F)F)cc2)c1O [Compound 16o, (Z)-3-((2-hydroxy-3-methoxy-6-((Z)-3,4,5-trimethoxystyryl)phenyl)amino)-1-(4-(trifluoromethoxy)phenyl)prop-2-en-1-one] | 180 to 7330 | 2.24 | 1.95 | 7.08 | 1.32 | – | – | – | –
COc1cc(/C=C\c2cc(OC)c(OC)c(OC)c2)cc(N/C=C\C(=O)c2cc(OC)c(OC)c(OC)c2)c1OC [Compound 11x, (Z)-3-((2,3-dimethoxy-5-((Z)-3,4,5-trimethoxystyryl)phenyl)amino)-1-(3,4,5-trimethoxyphenyl)prop-2-en-1-one] | 120 to 5750 | 7.08 | 0.28 | 3.72 | 3.33 | – | – | – | –
COc1ccc(C(=O)/C=C\Nc2c(/C=C\c3cc(OC)c(OC)c(OC)c3)ccc(OC)c2O)cc1[N+](=O)[O-] [Compound 16t, (Z)-3-((2-hydroxy-3-methoxy-6-((Z)-3,4,5-trimethoxystyryl)phenyl)amino)-1-(4-methoxy-3-nitrophenyl)prop-2-en-1-one] | 180 to 7330 | 0.6 | 3.98 | 1.66 | 7.33 | – | – | – | –
COc1ccc(/C=C\c2cc(OC)c(OC)c(OC)c2)cc1N/C=C\C(=O)c1cc(OC)c(OC)c(OC)c1Br [Compound 10y, (Z)-1-(2-bromo-3,4,5-trimethoxyphenyl)-3-((2-methoxy-5-((Z)-3,4,5-trimethoxystyryl)phenyl)amino)prop-2-en-1-one] | 110 to 4680 | 2.95 | 3.98 | 0.25 | 3.51 | – | – | – | –
COc1ccc(/C=C\c2cc(OC)c(OC)c(OC)c2)cc1N/C=C\C(=O)c1ccc(OC(F)(F)F)cc1 [Compound 10o, (Z)-3-((2-methoxy-5-((Z)-3,4,5-trimethoxystyryl)phenyl)amino)-1-(4-(trifluoromethoxy)phenyl)prop-2-en-1-one] | 110 to 4680 | 1.32 | 2.95 | 0.26 | 2.69 | – | – | – | –
COc1ccc(/C=C\c2cc(OC)c(OC)c(OC)c2)cc1OP(=O)(O)O [Ca-4, Combretastatin, reference compound] | – | – | – | – | – | 0.58 | 3.98 | 0.58 | 0.31
COc1ccc(C(=O)/C=C\Nc2c(/C=C\c3cc(OC)c(OC)c(OC)c3)ccc(OC)c2O)cc1N [Compound 16u] | 180 to 7330 | 0.18 | 1.74 | 2.51 | 1.32 | – | – | – | –
